Series [1] relates to JNK1 in SW480 colon cancer cells. The experiment in a line: JNK1 immunoprecipitation in vitro kinase assay with GST-c-Jun(1-79). Format: cell-based, human. The settings on record: SW480 cells, one hour; sulindac sulfide 50-500 μM, exisulind 100-600 μM, Compound A 0.1-5 μM, Compound B 1-50 μM. As to the method:
The cells were lysed, JNK1 immunoprecipitated with an anti-JNK1 antibody, and the immunoprecipitate (“IP”) assayed for in vitro kinase activity with GST-c-Jun(1-79) as the substrate. The experiments were repeated three times with similar results. Fold activation was measured using a Phosphor Imager.
FIG. 1B: SW480 cells were treated with Compound A (1 μM) for the indicated time periods and in vitro JNK1 kinase activity was determined as described above.
FIG. 2A SW480 cells were treated with either DMSO (−) or Compound A, 0.1 μM; dbcGMP, 500 μM; YC-1, 50 μM; MY-5445, 50 μM; dipyridamole, 10 μM or dbcAMP, 500 μM for one hour. The cells were lysed, JNK1 immunoprecipitated, and the IP assayed for in vitro kinase activity as described in FIG. 1A.
FIG. 2B SW480 cells were pre-treated with either DMSO, KT5720 (2 μM) or Rp-8-pCPT-cGMPS (2 μM) for 2 hours and then treated with Compound B (0, 1 or 10 μM) for one hour. The cells were lysed and assayed for JNK1 activation in the IP as described above.
These concentrations were chosen since they provided optimal induction of apoptosis. Endogenous JNK1 was immunoprecipitated with anti-JNK1 antibody and in vitro kinase assays were performed with GST-c-Jun(1-79) as the substrate. […]
However, the precise role of PKG in signal transduction pathways is not known. […] As a control, KT5720 was used as a protein kinase A (“PKA”)-specific inhibitor. SW480 cells were treated with either DMSO, KT5720 (2 μM) or Rp-8-pCPT-cGMPS (2 μM) for 2 hours and then treated with either DMSO or Compound B (1 or 10 μM) for one hour. Cell extracts were collected and assayed for JNK1 activation.

In the next series the test system is caspase-3 in SW480 cells. The experiment in a line: Caspase-3 activity with Ac-DEVD-AFC substrate. The settings on record: 24 hours, sulindac sulfide 200 μM, exisulind 600 μM, Compound A 1 μM, Compound B 10 μM. The class given is cell-based, human. As to the method:
The cells were lysed and the extracts assayed for caspase-3 activity using Ac-DEVD-AFC as the substrate, in the presence or absence of the caspase-3 inhibitor Ac-DEVD-CHO. Caspase-3 activity was calculated by subtracting the AFC fluorescence (excitation; 400 nm, emission; 505 nm) in the presence of Ac-DEVD-CHO from the AFC fluorescence in the absence of Ac-DEVD-CHO.
Protein extracts were then prepared and caspase-3 activity was measured with Ac-DEVD-AFC as the substrate, in the presence or absence of the caspase-3 inhibitor Ac-DEVD-CHO. […] Similar findings were obtained with HCT116 and HT29 cells (data not shown).

The target of series [2] is T1, GST-cGB-PDE5 fusion protein (cGMP binding sites of human PDE5A) (Homo sapiens, UniProt O76074).
T1 construct: made in house; host or cells: E. coli BL21 (DE3)
T1 sequence (O76074 46-539 limits assumed): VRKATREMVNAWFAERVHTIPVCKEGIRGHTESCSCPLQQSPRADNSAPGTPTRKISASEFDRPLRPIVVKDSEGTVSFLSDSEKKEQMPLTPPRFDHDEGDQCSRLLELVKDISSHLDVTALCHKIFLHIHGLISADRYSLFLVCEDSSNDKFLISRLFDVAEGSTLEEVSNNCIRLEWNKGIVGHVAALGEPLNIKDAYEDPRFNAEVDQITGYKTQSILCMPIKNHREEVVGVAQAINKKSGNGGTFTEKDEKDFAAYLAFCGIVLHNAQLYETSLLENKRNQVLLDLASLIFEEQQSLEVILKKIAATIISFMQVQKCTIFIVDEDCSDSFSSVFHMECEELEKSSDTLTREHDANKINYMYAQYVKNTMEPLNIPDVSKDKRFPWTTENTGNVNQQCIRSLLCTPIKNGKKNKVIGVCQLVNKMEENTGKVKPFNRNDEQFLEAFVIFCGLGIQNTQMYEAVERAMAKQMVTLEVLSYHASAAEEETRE
The series can be described thus: cGMP binding assay (3H-cGMP competition). The settings on record: 3H-cGMP 2 μM, 22° C., 1 hour.

Series [3] is described as follows: Toxicity study in dogs (capsules). The class given is in vivo. The text has this:
Thus, on a single-dose basis, Compound B is not acutely toxic.

A further series has as its system SW-480 cell line. The series can be described thus: Tumor cell growth inhibition. The class given is cell-based, human. The text has this: In an alternate embodiment, the method of the present invention involves further determining whether the compound reduces the growth of tumor cells. Various cell lines can be used in the sample depending on the tissue to be tested. For example, these cell lines include: SW-480—colonic adenocarcinoma; HT-29—colonic adenocarcinoma, A-427—lung adenocarcinoma carcinoma; MCF-7—breast adenocarcinoma; and UACC-375—melanoma line; and DU145—prostrate carcinoma. Cytotoxicity data obtained using these cell lines are indicative of an inhibitory effect on neoplastic lesions. These cell lines are well characterized, and are used by the United States National Cancer Institute in their screening program for new anti-cancer drugs.
A compound's ability to inhibit tumor cell growth can be measured using the HT-29 human colon carcinoma cell line obtained from ATCC. […] After six days in culture, the cells are fixed by the addition of cold trichloroacetic acid to a final concentration of 10% and protein levels are measured using the sulforhodamine B (SRB) calorimetric protein stain assay as previously described by Skehan, P., Storeng, R., Scudiero, D., Monks, A., McMahon, J., Vistica, D., Warren, J. T., Bokesch, H., Kenney, S., and Boyd, M. R., “New Colorimetric Assay For Anticancer-Drug Screening,” J. Natl. Cancer Inst. […]
Preferably, an IC50 value is determined and used for comparative purposes. […]

Series [4] has as its system aberrant crypt foci (ACF). The series can be described thus: Azoxymethane-induced aberrant crypt foci model. The class given is in vivo, male Fisher 344 rats. The settings on record: for % Control (ACF/colon) / Mean ACF/colon (+SE): free base; for Mean ACF/colon (+SE): 5 weeks. On the procedure:
The growth inhibition IC50 value obtained for Compound B was 0.7 μM in the SW-480 cell line. […] This established rodent model of azoxymethane (“AOM”)-induced carcinogenesis was used to assess the effects of Compound B (free base and salt) on colon cancer development in vivo. ACF are precursors to colonic tumors, and ACF inhibition is predictive of chemo-preventive efficacy.
In the rats in this experiment, ACF initiation was achieved by two consecutive weekly injections of the carcinogen. Compound B was administered one week prior to ACF initiation and for the duration of the experiment. ACFs were scored after 5 weeks of treatment. Compound B was administered orally to male Fisher 344 rats in the rat chow. Daily food consumption (mg/kg body weight) varied over the course of the study, and therefore Compound B dose was expressed a grams per kg of diet to provide a basis of comparison between doses. […] The experimental groups gained less weight than the controls, which was indicative of bioavailability. However, the weight differences were less than 10% and not considered to affect ACF formation.

pIC50: −log10 of the molar value.

Turning to `CC1=C(CC(=O)O)c2cc(F)ccc2/C1=C\c1ccc(S(C)(=O)=O)cc1` [exisulind, 5-fluoro-2-methyl-1-(p-methylsulfonylbenzylidene)-3-indenylacetic acid], the JNK1 activation entry in series [1] is reported as “activated JNK1”. In addition, in the series with caspase-3 in SW480 cells, the caspase-3 activation result is recorded as “led to activation of caspase-3”. The “competition with cGMP for the cGMP binding sites of GST-cGB-PDE5” value in series [2] is listed as “None of the PDE5 inhibitors showed any competition with cGMP”.

Consider `CC1=C(CC(=O)NCc2ccccc2)c2cc(F)ccc2/C1=C\c1ccncc1.Cl` [Compound B, (Z)-5-fluoro-2-methyl-(4-pyridylidene)-3-(N-benzyl)indenylacetamide hydrochloride], for which the JNK1 activation result in series [1] is listed as “activated JNK1”. Further, the caspase-3 activation entry in the series with caspase-3 in SW480 cells is listed as “led to activation of caspase-3”. Also, the “oral LD50” value in series [3] is “greater than 1000 mg/kg”. Further, the signs of toxicity entry in series [3] (capsules, single 1000 mg/kg) was “no signs of toxicity”. Besides, in series [3] (single dose and seven consecutive doses of 1000 mg/kg/day), the “signs of drug-related effects” value was “At no time in either dosing phase were any obvious signs of drug-related effects observed”. Also, the pIC50 in the series on SW-480 cell line is 6.15. Besides, the “% Control (ACF/colon)” value in series [4] (0.5 g/kg diet) is given as 100%; in series [4] (1 g/kg diet), 75%; in series [4] (1.5 g/kg diet), 89%; in series [4] (2.0 g/kg diet), 72%. The “Mean ACF/colon (+SE)” value in series [4] (0.5 g/kg diet) is listed as 149 ± 14; in series [4] (1 g/kg diet), 111 ± 9; in series [4] (1.5 g/kg diet), 132 ± 4; in series [4] (2.0 g/kg diet), 107 ± 15. Also, in series [4] (rats, Compound B in rat chow, over the experiment), the “body weight difference versus controls” value was “less than 10%”. The “competition with cGMP for the cGMP binding sites of GST-cGB-PDE5” value in series [2] is reported as “None of the PDE5 inhibitors showed any competition with cGMP”.

Broadly, the pIC50 is the IC50 on a negative log10 scale, so that one unit is a factor of ten. Higher therefore signals a low IC50.

(Values after patent publication US6569638B1, “Method for screening compounds for the treatment of neoplasia” (Cell Pathways, Inc, priority 2000, dated 2003).)
